Experimental data taken from patent publication US20120027842A1, “TOPICAL FORMULATIONS OF FLAP INHIBITORS FOR ADMINISTRATION TO AN EYE” (Amira Pharmaceuticals, Inc., priority 2008, published 2012).

How the values were obtained:
[1] = Solubility in 10% beta-hydroxypropyl cyclodextrin (BHPC) in water; assay type: physicochemical; conditions: Na salt; at 1 mg/mL
Experimental: In one aspect, aqueous ophthalmic solutions that include a FLAP inhibitor compounds were prepared by dissolving a FLAP inhibitor compound in 10% beta-hydroxypropyl cyclodextrin (BHPC) in water. Using this formulation, the following compounds were soluble at 1 mg/mL: Compound A (Na salt), Compound B (Na salt), Compound C (Na salt), Compound I (Na salt), Compound J (Na salt), Compound G (Na salt).

[2] = tested on: RSV (Long strain, serotype A); test: Mouse model of RSV-infected eye: ocular pathology; assay type: in vivo, BALB/c mice
Experimental: (§1) A mouse model of respiratory syncytial virus (RSV) eye infection is used to test the effects of ocular application of a FLAP inhibitor compound on RSV-induced ocular immunopathology (Bitko V, et al., J. Virol. 2007; 81(2):783-90; Bitko V, et al., Nat. Med. 2005; 11(1):50-5). Each mouse eye is topically treated with 60 ng of FLAP inhibitor compound or vehicle (sterile saline) in a volume of 2 μl. The FLAP inhibitor compound is instilled 40 min after virus inoculum and then once daily over the entire duration of the protocol (14 days).
Instillation of virus and inhibitor in the eye. Female BALB/c mice, 6 to 8 weeks old, were purchased from Charles River Laboratories. RSV (Long strain, serotype A) was grown on HEp-2 cells and purified on sucrose layers to a concentration of 10^11 PFU (Bitko et al., Nat. Med. 11:50-55, 2005). […]
Ocular pathology. Ocular disease was evaluated with a slit lamp biomicroscope as described previously (Bitko V, et al., J. Virol. 2007; 81(2):783-90) 15; Girgis et al., Invest. […] Pathology was scored on a scale of 0 to 5 as follows: 0=clear eye; 1=slight redness in the corners; 2=moderate redness and injection; 3=conjunctival and corneal injection with ciliary flush; 4=extensive injection, generally associated with some mucus; 5=most extensive injection, associated with mucus. Eyes were examined in a coded fashion with the reader unaware of the treatment given. […]

RSV = test: Mouse model of RSV-infected eye: RSV viral load, RNA and protein in eye and lung; assay type: in vivo, BALB/c mice; conditions: ocular application to RSV-infected mice
Experimental: as §1
(§2) Instillation of virus and inhibitor in the eye. Female BALB/c mice, 6 to 8 weeks old, were purchased from Charles River Laboratories. RSV (Long strain, serotype A) was grown on HEp-2 cells and purified on sucrose layers to a concentration of 10^11 PFU (Bitko et al., Nat. Med. 11:50-55, 2005). Dilutions were done in phosphate-buffered saline (PBS) immediately before use to a final concentration of 10^4 PFU/2 μL as needed. A similarly diluted sucrose solution was used in sham-infected control mice. Mice were anesthetized by intraperitoneal injection of pentobarbital (50 mg/kg), and virus in 2 μL PBS was dropped into the corneal surface and massaged in with closed eyelids. The day of the inoculation was considered day 0. The FLAP inhibitor Compound C was diluted in PBS to 60 ng/2 μL just prior to application of 2 μL 40 minutes after the RSV inoculation on day 0 and then each day.
RSV RNA and protein: RSV is assayed in the ocular tissue on various days using both Western blot and viable virus assay (plaque forming unit; pfu) as described before. […] is quantified by RT-PCR. RSV RNA and protein were measured in the eye and lung (Urnowey et al., BMC Microbiol. 6:26, 2006).
Compound C reduced RSV in the lung.
Infection of an eye eventually transmits into the lung, causing a standard respiratory infection. […] Thus, it is of interest to monitor the lung infection to determine if the ocular application of the FLAP inhibitor compound has any effect on virus replication and quantity of virus in the lung. […]

CysLTs = test: Mouse model of RSV-infected eye: CysLT measurements in eye homogenates (EIA); assay type: in vivo, BALB/c mice; conditions: topical treatment of RSV-infected mouse eyes, 60 ng/2 μL daily
Experimental: as §1
as §2, with “The FLAP inhibitor Compound C was diluted in PBS to 60 ng/2 μL just prior to application of 2 μL 40 minutes after the RSV inoculation on day 0 and then each day.” left out

IL-4 = test: Mouse model of RSV-infected eye: Interleukin-4 (IL-4) measurements in eye homogenates; assay type: in vivo, BALB/c mice; conditions: topical treatment of RSV-infected mouse eyes, 60 ng/2 μL daily
Experimental: as §1
as §2, with “The FLAP inhibitor Compound C was diluted in PBS to 60 ng/2 μL just prior to application of 2 μL 40 minutes after the RSV inoculation on day 0 and then each day.” left out

[3] = parameters: species or system BALB/c mice; conditions: mouse, in vivo, 10 mg/kg

COc1cnc(-c2ccc(Cn3c(CC(C)(C)C(=O)O)c(SC(C)(C)C)c4cc(OCc5ccc(C)cn5)ccc43)cc2)nc1 [Compound A, 3-[3-tert-Butylsulfanyl-1-[4-(5-methoxy-pyrimidin-2-yl)-benzyl]-5-(5-methyl-pyridin-2-ylmethoxy)-1H-indol-2-yl]-2,2-dimethyl-propionic acid]
solubility in 10% beta-hydroxypropyl cyclodextrin (BHPC) in water [1]: soluble

COc1cnc(-c2ccc(Cn3c(CC(C)(C)C(=O)O)c(SC(C)(C)C)c4cc(OCc5cnc(C)cn5)ccc43)cc2)nc1 [Compound B, 3-[3-tert-Butylsulfanyl-1-[4-(5-methoxy-pyrimidin-2-yl)-benzyl]-5-(5-methyl-pyrazin-2-ylmethoxy)-1H-indol-2-yl]-2,2-dimethyl-propionic acid]
solubility in 10% beta-hydroxypropyl cyclodextrin (BHPC) in water [1]: soluble

COc1cnc(-c2ccc(Cn3c(CC(C)(C)C(=O)O)c(SC(C)(C)C)c4cc(OC[C@@H]5Cc6ccccc6N5C(C)=O)ccc43)cc2)nc1 [Compound C, 3-{5-((S)-1-Acetyl-2,3-dihydro-1H-indol-2-ylmethoxy)-3-tert-butylsulfanyl-1-[4-(5-methoxy-pyrimidin-2-yl)-benzyl]-1H-indol-2-yl}-2,2-dimethyl-propionic acid]
gummy residue and mucin build up in infected eyes ([2]; ocular application 60 ng/2 μL per eye daily, day 8): clear of gummy residue and mucin build up | RSV eye pathology score (scale of 0 to 5) ([2]; ocular application 60 ng/2 μL per eye, 40 min after RSV then daily, days 2-14 after RSV challenge): reduces the pathology score across all observation days | solubility in 10% beta-hydroxypropyl cyclodextrin (BHPC) in water [1]: soluble | RSV in the lung (RSV): reduced | RSV mRNA or protein in the eye or the lung (RSV): did not increase | viral load in the eye or the lung (RSV): did not increase | levels of CysLTs in eye homogenates (CysLTs): reduced | levels of IL-4 in eye homogenates (IL-4): reduced

CC(C)(C)Sc1c(CC(C)(C)C(=O)O)n(Cc2ccc(-c3ccc(F)cn3)cc2)c2ccc(OCc3ccc4ccccc4n3)cc12 [Compound F, 3-[3-tert-Butylsulfanyl-1-[4-(5-fluoro-pyridin-2-yl)-benzyl]-5-(quinolin-2-ylmethoxy)-1H-indol-2-yl]-2,2-dimethyl-propionic acid]
solubility in 10% beta-hydroxypropyl cyclodextrin (BHPC) in water [1]: formed a cloudy solution

CCC(CC)(Cc1c(SC(C)(C)C)c2cc(OCc3ccc(C)cn3)ccc2n1Cc1ccc(-c2ncc(OC)cn2)cc1)C(=O)O [Compound G, 2-[3-tert-Butylsulfanyl-1-[4-(5-methoxy-pyrimidin-2-yl)-benzyl]-5-(5-methyl-pyridin-2-ylmethoxy)-1H-indol-2-ylmethyl]-2-ethyl-butyric acid]
solubility in 10% beta-hydroxypropyl cyclodextrin (BHPC) in water [1]: soluble

CC(=O)N1CCC[C@H]1COc1ccc2c(c1)c(SC(C)(C)C)c(CC(C)(C)C(=O)O)n2Cc1ccc(Cl)cc1 [Compound I, 3-[5-((S)-1-Acetyl-pyrrolidin-2-ylmethoxy)-3-tert-butylsulfanyl-1-(4-chloro-benzyl)-1H-indol-2-yl]-2,2-dimethyl-propionic acid]
solubility in 10% beta-hydroxypropyl cyclodextrin (BHPC) in water [1]: soluble

CC(C)(C)Sc1c(CC(C)(C)C(=O)O)n(Cc2ccc(-c3ccc(F)cn3)cc2)c2ccc(OCc3ccccn3)cc12 [Compound J, 3-[3-tert-butylsulfanyl-1-[4-(5-fluoro-pyridin-2-yl)-benzyl]-5-(pyridin-2-ylmethoxy)-1H-indol-2-yl]-2,2-dimethyl-propionic acid]
solubility in 10% beta-hydroxypropyl cyclodextrin (BHPC) in water [1]: soluble

CCN(Cc1cc(C(F)(F)F)ccc1-c1cncc(CC(=O)O)c1)C(=O)OCc1ccccc1 [DP2 receptor antagonist]
Plasma concentration @ trough [3]: <10 nM
